In PMC3138527 (2011):

How the values were obtained:
Format in all cases: biochemical
[1] = target: T1, triosephosphate isomerase (Tbb TIM) (Trypanosoma brucei, UniProt P04789); test: coupled enzyme assay
[2] = target: T1, triosephosphate isomerase (Tbb TIM); test: 1H NMR turnover in D2O
[3] = target: T1, triosephosphate isomerase (Tbb TIM); test: activation of the TIM-catalyzed reaction of [[…]-13C]-GA in D2O followed by 1H NMR

T1 sequence (P04789 whole entry): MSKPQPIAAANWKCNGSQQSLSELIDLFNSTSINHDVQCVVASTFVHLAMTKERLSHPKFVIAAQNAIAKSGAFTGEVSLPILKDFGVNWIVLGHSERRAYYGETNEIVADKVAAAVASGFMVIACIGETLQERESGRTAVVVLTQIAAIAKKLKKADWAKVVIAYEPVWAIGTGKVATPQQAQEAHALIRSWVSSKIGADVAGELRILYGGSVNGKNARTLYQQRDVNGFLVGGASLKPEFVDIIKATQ

**Q.** With O=C[C@H](O)COP(=O)(O)O [GAP, (R)-glyceraldehyde 3-phosphate] as the compound, how does the Km [1] read?
**A.** The Km was 250 µM.

**Q.** With O=CCO [[1-^13C]-GA, glycolaldehyde] as the compound, how does the “1H NMR turnover in D2O; kcat/Km with saturating phosphite” value [2] read?
**A.** The value was 64 ± 6 M⁻¹ s⁻¹.

**Q.** For O=[PH](O)O [phosphite dianion], which Kd [3] is on record?
**A.** Its Kd is 19 ± 3 mM.
